Results as given in US20170369492A1 (Takeda Pharmaceutical Company Limited, priority 2014, published 2017).

Target: T1, human GPR43 (Homo sapiens, UniProt O15552)
T1 construct: expressed in transfected cells
T1 sequence (O15552 1-330): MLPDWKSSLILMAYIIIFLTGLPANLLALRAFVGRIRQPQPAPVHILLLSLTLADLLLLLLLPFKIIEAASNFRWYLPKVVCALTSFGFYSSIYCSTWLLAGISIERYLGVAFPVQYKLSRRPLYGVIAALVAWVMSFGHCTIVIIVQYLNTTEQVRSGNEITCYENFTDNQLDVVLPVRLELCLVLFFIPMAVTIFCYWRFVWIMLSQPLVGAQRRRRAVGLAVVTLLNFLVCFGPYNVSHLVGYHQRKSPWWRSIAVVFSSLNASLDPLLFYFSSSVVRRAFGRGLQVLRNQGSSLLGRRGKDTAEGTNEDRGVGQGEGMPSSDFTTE
Test: Ca-Flux Functional Assay: Determination of Agonist/Positive Allosteric Modulator (PAM) Activity
Format: cell-based
Settings: CHO-K1 Gα16 cells stably expressing human GPR43; compound added in the presence of EC20 sodium acetate; intracellular Ca2+ by FLIPR; agonist/PAM activity not distinguished
Procedure: Ca-Flux Functional Assay: Determination of Agonist/Positive Allosteric Modulator (PAM) Activity
GPR43 agonist/PAM activity was determined by measuring changes in intracellular calcium levels using a Ca^2+ sensitive fluorescent dye. The changes in fluorescent signal were monitored by FLIPR (manufactured by Molecular Devices). GPR43 mediated increases in intracellular Ca^2+ concentration were readily detected upon activation with sodium acetate. Prior to the assay (24 hours), CHO-K1 Gα16 cells stably expressing human GPR43 were-seeded in cell culture medium in black, clear-bottom 384-well plates (Corning Inc) and grown overnight at 37° C., 5% CO2. On the day of the assay, cell culture media was removed and cells were loaded with Calcium 5 Dye (Molecular Devices) diluted in HBSS containing 25 mM HEPES, 2.5 mM Probenecid, 0.1% BSA for 1 hour at 37° C., 5% CO2. 10 point half log concentration response curves of sodium acetate from 10 mM were conducted prior to the testing of compounds to calculate the sodium acetate concentration that produces 20% of the maximal response (EC20). Test compounds (at to point half log concentration response curves from 10 μM) were added in the presence of sodium acetate to achieve a final concentration that produces approximately 20% maximal response as calculated from the previous experiment. The changes in fluorescent signal were monitored by FLIPR upon addition of the compound/EC20 sodium acetate mix. The EC50 values were determined from ten point concentration response curves. Curves were generated using the average of two wells for each data point.
The above assay detects both GPR43 receptor agonists and positive allosteric modulators of the GPR43 receptor, without distinguishing between the two. Activity in either regard is useful in the treatment of conditions associated with GPR43 receptor activity.

Point of comparison: `COc1ccc(S(=O)(=O)c2c(N)n(C3CCCCC3)c3nccnc23)cn1` [Example 115, 5-cyclohexyl-7-(6-methoxypyridine-3-sulfonyl)-5H-pyrrolo[2,3-b]pyrazin-6-amine], EC50 4560 nM. Against it:
- CCOC1CCN(S(=O)(=O)c2c(N)n(C3CCCCC3)c3nccnc23)CC1 [Example 65, 5-cyclohexyl-7-((4-ethoxypiperidin-1-yl)sulfonyl)-5H-pyrrolo[2,3-b]pyrazin-6-amine] — 22-fold lower, 210 nM
- Nc1c(S(=O)(=O)c2ccccc2)c2nccnc2n1C1CCCCC1 [Example 1, 7-(benzenesulfonyl)-5-cyclohexyl-5H-pyrrolo[2,3-b]pyrazin-6-amine] — 17-fold lower, 261 nM
- Nc1c(S(=O)(=O)c2ccccc2)c2ncnc(O)c2n1C1CCC(F)(F)CC1 [Example 31, 6-amino-5-(4,4-difluorocyclohexyl)-7-(phenylsulfonyl)-5H-pyrrolo[3,2-d]pyrimidin-4-ol] — 1.5-fold higher, 6940 nM
- COc1ncnc2c(S(=O)(=O)c3ccccc3)c(N)n(C3CCCCC3)c12 [Example 26, 7-(benzenesulfonyl)-5-cyclohexyl-4-methoxy-5H-pyrrolo[3,2-d]pyrimidin-6-amine] — 58-fold lower, 79 nM
- Cc1ccc2c(S(=O)(=O)c3ccccc3)c(N)n(C3CCC(F)(F)CC3)c2n1 [Example 25, 3-(benzenesulfonyl)-1-(4,4-difluorocyclohexyl)-6-methyl-1H-pyrrolo[2,3-b]pyridin-2-amine] — 4.1-fold lower, 1100 nM
- Nc1c(S(=O)(=O)N2CCN(C(=O)c3ccc(F)cc3)CC2)c2nccnc2n1C1CCCCC1 [Example 98, 5-cyclohexyl-7-{4-[(4-fluorophenyl)carbonyl]piperazine-1-sulfonyl}-5H-pyrrolo[2,3-b]pyrazin-6-amine] — 1.6-fold lower, 2810 nM
- COc1ncnc2c(S(=O)(=O)c3ccccc3)c(N)n(C3CCCC3)c12 [Example 35, 7-(benzenesulfonyl)-5-cyclopentyl-4-methoxy-5H-pyrrolo[3,2-d]pyrimidin-6-amine] — 2.5-fold lower, 1860 nM
- Nc1c(S(=O)(=O)N2C3CCC2CC(O)C3)c2nccnc2n1C1CCCCC1 (centres unmarked) [Example 104, 8-{6-amino-5-cyclohexyl-5H-pyrrolo[2,3-b]pyrazine-7-sulfonyl}-8-azabicyclo[3.2.1]octan-3-ol] — within 1.5-fold, 3080 nM
- COCC1CCN(S(=O)(=O)c2c(N)n(C3CCCCC3)c3nccnc23)C1 (centres unmarked) [Example 88, 5-cyclohexyl-7-[3-(methoxyrnethyl)pyrrolidine-1-sulfonyl]-5H-pyrrolo[2,3-b]pyrazin-6-amine] — within 1.5-fold, 3150 nM
- N#Cc1ncnc2c(S(=O)(=O)c3ccccc3)c(N)n(C3CCCCC3)c12 [Example 37, 6-amino-7-(benzenesulfonyl)-5-cyclohexyl-5H-pyrrolo[3,2-d]pyrimidine-4-carbonitrile] — 9.7-fold lower, 468 nM
- Nc1c(S(=O)(=O)c2ccc(Cl)cc2)c2nccnc2n1C1CCCCC1 [Example 5, 7-[(4-chlorobenzene)sulfonyl]-5-cyclohexyl-5H-pyrrolo[2,3-b]pyrazin-6-amine] — 23-fold lower, 195 nM
- Nc1c(S(=O)(=O)c2ccccc2)c2nccnc2n1C1CCC1 [Example 43, 5-cyclobutyl-7-(phenylsulfonyl)-5H-pyrrolo[2,3-b]pyrazin-6-amine] — 1.5-fold higher, 6990 nM
- CC1(C)CC1Cn1c(N)c(S(=O)(=O)c2ccccc2)c2nccnc21 (centres unmarked) [Example 56, 5-((2,2-dimethylcyclopropyl)methyl)-7-(phenylsulfonyl)-5H-pyrrolo[2,3-b]pyrazin-6-amine] — 3.5-fold lower, 1300 nM
- Nc1c(S(=O)(=O)N2CCN(CC(F)(F)F)CC2)c2nccnc2n1C1CCCCC1 [Example 105, 5-cyclohexyl-7-[4-(2,2,2-trifluoroethyl)-piperazine-1-sulfonyl]-5H-pyrrolo[2,3-b]pyrazin-6-amine] — 7-fold lower, 647 nM
- Nc1c(S(=O)(=O)N2CCC(Oc3ccccc3)CC2)c2nccnc2n1C1CCCCC1 [Example 85, 5-cyclohexyl-7-(4-phenoxypiperidine-1-sulfonyl)-5H-pyrrolo[2,3-b]pyrazin-6-amine] — 4.3-fold lower, 1060 nM
- Nc1c(S(=O)(=O)c2ccccc2)c2cccnc2n1C1CCC(F)(F)CC1 [Example 17, 3-(benzenesulfonyl)-1-(4,4-difluorocyclohexyl)-1H-pyrrolo[2,3-b]pyridin-2-amine] — 8.2-fold lower, 559 nM
- CC1(C)CCN(S(=O)(=O)c2c(N)n(C3CCCCC3)c3nccnc23)CC1 [Example 66, 5-cyclohexyl-7-((4,4-dimethylpiperidin-1-yl)sulfonyl)-5H-pyrrolo[2,3-b]pyrazin-6-amine] — 14-fold lower, 327 nM
- CC(=O)N(C)C1CCN(S(=O)(=O)c2c(N)n(C3CCCCC3)c3nccnc23)CC1 [Example 79, N-(1-{6-amino-5-cyclohexyl-5H-pyrrolo[2,3-b]pyrazine-7-sulfonyl}piperidin-4-yl)-N-methylacetamide] — within 1.5-fold, 5970 nM
- COc1nc(C)nc2c(S(=O)(=O)c3cccc(F)c3)c(N)n(C3CCCCC3)c12 [Example 39, 5-cyclohexyl-7-(3-fluorobenzenesulfonyl)-4-methoxy-2-methyl-5H-pyrrolo[3,2-d]pyrimidin-6-amine] — 6.9-fold lower, 657 nM
- Nc1c(S(=O)(=O)c2ccccc2)c2nccnc2n1C1CCCOC1 (centres unmarked) [Example 51, 7-(phenylsulfonyl)-5-(tetrahydro-2H-pyran-3-yl)-5H-pyrrolo[2,3-b]pyrazin-6-amine] — within 1.5-fold, 6000 nM
- Nc1c(S(=O)(=O)N2CCC(c3ccccc3)C2)c2nccnc2n1C1CCCCC1 (centres unmarked) [Example 86, 5-cyclohexyl-7-(3-phenylpyrrolidine-1-sulfonyl)-5H-pyrrolo[2,3-b]pyrazin-6-amine] — 2.7-fold lower, 1720 nM
- Nc1c(S(=O)(=O)N2CCSCC2)c2nccnc2n1C1CCCCC1 [Example 78, 5-cyclohexyl-7-(thiomorpholine-4-sulfonyl)-5H-pyrrolo[2,3-b]pyrazin-6-amine] — 14-fold lower, 337 nM
- Nc1c(S(=O)(=O)c2ccc(OC(F)F)cc2)c2nccnc2n1C1CCCCC1 [Example 118, 5-cyclohexyl-7-{[4-(difluoromethoxy)-benzene]sulfonyl}-5H-pyrrolo[2,3-b]pyrazin-6-amine] — 26-fold lower, 177 nM
- Nc1c(S(=O)(=O)c2ccccc2)c2ccncc2n1C1CCCCC1 [Example 20, 3-(benzenesulfonyl)-1-cyclohexyl-1H-pyrrolo[2,3-]pyridin-2-amine] — 1.9-fold lower, 2360 nM
- COc1nc(C)nc2c(S(=O)(=O)c3ccccc3F)c(N)n(C3CCCCC3)c12 [Example 38, 5-cyclohexyl-7-(2-fluorobenzenesulfonyl)-4-methoxy-2-methyl-5H-pyrrolo[3,2-d]pyrimidin-6-amine] — 27-fold lower, 169 nM
- CC(C)Oc1ccc(S(=O)(=O)c2c(N)n(C3CCCCC3)c3nccnc23)cc1 [Example 7, 5-cyclohexyl-7-{[4-(propan-2-yloxy)benzene]sulfonyl}-5H-pyrrolo[2,3-b]pyrazin-6-amine] — 27-fold lower, 172 nM
- Nc1c(S(=O)(=O)c2ccccc2)c2nccnc2n1C1CCCCC1O (centres unmarked) [Example 47, 2-(6-amino-7-(phenylsulfonyl)-5H-pyrrolo[2,3-b]pyrazin-5-yl)cyclohexanol] — within 1.5-fold, 6490 nM
- COc1ccc(S(=O)(=O)c2c(N)n(C3CCC(F)(F)CC3)c3ncccc23)cc1 [Example 14, 1-(4,4-difluorocyclohexyl)-3-[(4-methoxybenzene)sulfonyl]-1H-pyrrolo[2,3-b]pyridin-2-amine] — 33-fold lower, 138 nM
- Nc1c(S(=O)(=O)NCCc2nccs2)c2nccnc2n1C1CCCCC1 [Example 103, 6-amino-5-cyclohexyl-N-[2-(1,3-thiazol-2-yl)ethyl]-5H-pyrrolo[2,3-b]pyrazine-7-sulfonamide] — 9.7-fold lower, 471 nM
- Nc1c(S(=O)(=O)c2ccccc2)c2cccnc2n1C1CCCCC1 [Example 15, 3-(benzenesulfonyl)-1-cyclohexyl-1H-pyrrolo[2,3-b]pyridin-2-amine] — 12-fold lower, 381 nM
- COC1CN(S(=O)(=O)c2c(N)n(C3CCCCC3)c3nccnc23)C1 [Example 64, 5-cyclohexyl-7-((3-methoxyazetidin-1-yl)sulfonyl)-5H-pyrrolo[2,3-b]pyrazin-6-amine] — 1.6-fold higher, 7130 nM
- Nc1c(S(=O)(=O)N2CCc3ccccc3C2)c2nccnc2n1C1CCCCC1 [Example 94, 5-cyclohexyl-7-(1,2,3,4-tetrahydroisoquinoline-2-sulfonyl)-5H-pyrrolo[2,3-b]pyrazin-6-amine] — 15-fold lower, 308 nM
- Nc1c(S(=O)(=O)N2CCC(C(F)(F)F)CC2)c2nccnc2n1C1CCCCC1 [Example 87, 5-cyclohexyl-7-[4-(trifluoromethyl)piperidine-1-sulfonyl]-5H-pyrrolo[2,3-b]pyrazin-6-amine] — 2.9-fold lower, 1550 nM
- COC(=O)Nc1c(S(=O)(=O)c2ccccc2)c2nccnc2n1C1CCCCC1 [Example 24, methyl N-[7-(benzenesulfonyl)-5-cyclohexyl-5H-pyrrolo[2,3-b]pyrazin-6-yl]carbamate] — 1.8-fold lower, 2590 nM
